Measured values reported in PubChem BioAssay (NCI).
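How tested: cells in 96-well plates exposed to compound for 48 hours at five concentrations. At the TGI there is no net growth.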

Assays:
Experiment in all cases: inhibition of tumour cell growth, NCI panel, 48 h
[1] = system: 786-0 renal
[2] = system: A549 NSCLC
[3] = system: ACHN renal
[4] = system: CAKI-1 renal
[5] = system: CCRF-CEM leukemia
[6] = system: COLO 205 colon
[7] = system: DU-145 prostate
[8] = system: EKVX NSCLC
[9] = system: HCC-2998 colon
[10] = system: HCT-116 colon
[11] = system: HCT-15 colon
[12] = system: HL-60(TB) leukemia
[13] = system: HOP-62 NSCLC
[14] = system: HOP-92 NSCLC
[15] = system: HS 578T breast
[16] = system: HT29 colon
[17] = system: IGROV1 ovarian
[18] = system: K-562 leukemia
[19] = system: KM12 colon
[20] = system: LOX IMVI melanoma
[21] = system: M14 melanoma
[22] = system: MALME-3M melanoma
[23] = system: MCF7 breast
[24] = system: MDA-MB-231 breast
[25] = system: MDA-MB-435
[26] = system: MDA-N
[27] = system: MOLT-4 leukemia
[28] = system: NCI-H226 lung
[29] = system: NCI-H23 lung
[30] = system: NCI-H460 lung
[31] = system: NCI-H522 lung
[32] = system: NCI/ADR-RES ovarian
[33] = system: OVCAR-3 ovarian
[34] = system: OVCAR-4 ovarian
[35] = system: OVCAR-5 ovarian
[36] = system: OVCAR-8 ovarian
[37] = system: PC-3 prostate
[38] = system: RPMI-8226 leukemia
[39] = system: RXF 393 renal
[40] = system: SF-268 CNS
[41] = system: SF-295 CNS
[42] = system: SF-539 CNS
[43] = system: SK-MEL-2 melanoma
[44] = system: SK-MEL-28 melanoma
[45] = system: SK-MEL-5 melanoma
[46] = system: SK-OV-3 ovarian
[47] = system: SN12C renal
[48] = system: SNB-19 CNS
[49] = system: SNB-75 CNS
[50] = system: SR leukemia
[51] = system: SW-620 colon
[52] = system: T-47D breast
[53] = system: TK-10 renal
[54] = system: U251 CNS
[55] = system: UACC-257 melanoma
[56] = system: UACC-62 melanoma
[57] = system: UO-31 renal
[58] = system: A498 renal
[59] = system: BT-549 breast

With O=c1[nH]c2nc3ccccc3nc2[nH]c1=O the TGI [1] was greater than 100 µM, the TGI [2] was greater than 100 µM and the TGI [3] was greater than 100 µM. The TGI [4] was greater than 100 µM, the TGI [5] was greater than 100 µM and the TGI [6] was greater than 100 µM. For the same molecule, the TGI [7] was greater than 100 µM, the TGI [8] was greater than 100 µM and the TGI [9] was greater than 100 µM. For the same molecule, the TGI [10] was greater than 100 µM, the TGI [11] was greater than 100 µM and the TGI [12] was greater than 100 µM. For the same molecule, the TGI [13] was greater than 100 µM, the TGI [14] was greater than 100 µM and the TGI [15] was greater than 100 µM. For the same molecule, the TGI [16] was greater than 100 µM, the TGI [17] was greater than 100 µM and the TGI [18] was greater than 100 µM. It also gave a TGI [19] greater than 100 µM, a TGI [20] greater than 100 µM and a TGI [21] greater than 100 µM. For the same molecule, the TGI [22] was greater than 100 µM, the TGI [23] was greater than 100 µM and the TGI [24] was greater than 100 µM. The TGI [25] was greater than 100 µM, the TGI [26] was greater than 100 µM and the TGI [27] was greater than 100 µM. For the same molecule, the TGI [28] was greater than 100 µM, the TGI [29] was greater than 100 µM and the TGI [30] was greater than 100 µM. The TGI [31] was greater than 100 µM, the TGI [32] was greater than 100 µM and the TGI [33] was greater than 100 µM. The TGI [34] was greater than 100 µM, the TGI [35] was greater than 100 µM and the TGI [36] was greater than 100 µM. The TGI [37] was greater than 100 µM, the TGI [38] was greater than 100 µM and the TGI [39] was greater than 100 µM. It also gave a TGI [40] greater than 100 µM, a TGI [41] greater than 100 µM and a TGI [42] greater than 100 µM. For the same molecule, the TGI [43] was greater than 100 µM, the TGI [44] was greater than 100 µM and the TGI [45] was greater than 100 µM. For the same molecule, the TGI [46] was greater than 100 µM, the TGI [47] was greater than 100 µM and the TGI [48] was greater than 100 µM. The TGI [49] was greater than 100 µM, the TGI [50] was greater than 100 µM and the TGI [51] was greater than 100 µM. The TGI [52] was greater than 100 µM, the TGI [53] was greater than 100 µM and the TGI [54] was greater than 100 µM. It also gave a TGI [55] greater than 100 µM, a TGI [56] greater than 100 µM and a TGI [57] greater than 100 µM.

CN(C)c1ccc(/C=C(\NC(=O)c2ccccc2)c2nn(C)c(=O)o2)cc1 gave a TGI [1] greater than 100 µM, a TGI [58] greater than 100 µM and a TGI [2] greater than 100 µM. For the same molecule, the TGI [3] was greater than 100 µM, the TGI [59] was greater than 100 µM and the TGI [4] was greater than 100 µM. The TGI [5] was greater than 100 µM, the TGI [6] was greater than 100 µM and the TGI [7] was greater than 100 µM. It also gave a TGI [8] greater than 100 µM, a TGI [9] greater than 100 µM and a TGI [10] greater than 100 µM. It also gave a TGI [11] greater than 100 µM, a TGI [12] greater than 100 µM and a TGI [13] of 38.1 µM. For the same molecule, the TGI [14] was greater than 100 µM, the TGI [15] was greater than 100 µM and the TGI [16] was greater than 100 µM. The TGI [17] was greater than 100 µM, the TGI [18] was greater than 100 µM and the TGI [19] was greater than 100 µM. It also gave a TGI [20] greater than 100 µM, a TGI [21] greater than 100 µM and a TGI [22] greater than 100 µM. For the same molecule, the TGI [23] was greater than 100 µM, the TGI [24] was greater than 100 µM and the TGI [25] was greater than 100 µM. It also gave a TGI [26] greater than 100 µM, a TGI [27] greater than 100 µM and a TGI [28] of 93.8 µM. For the same molecule, the TGI [29] was greater than 100 µM, the TGI [30] was greater than 100 µM and the TGI [31] was 47 µM. For the same molecule, the TGI [32] was 65.6 µM, the TGI [33] was greater than 100 µM and the TGI [34] was 97.7 µM. The TGI [35] was greater than 100 µM, the TGI [36] was 82.9 µM and the TGI [37] was greater than 100 µM. It also gave a TGI [38] greater than 100 µM, a TGI [39] greater than 100 µM and a TGI [40] greater than 100 µM. The TGI [41] was greater than 100 µM, the TGI [42] was greater than 100 µM and the TGI [43] was greater than 100 µM. For the same molecule, the TGI [44] was greater than 100 µM, the TGI [45] was 93.5 µM and the TGI [46] was greater than 100 µM. The TGI [47] was greater than 100 µM, the TGI [48] was 80 µM and the TGI [49] was 46.8 µM. For the same molecule, the TGI [51] was greater than 100 µM, the TGI [52] was greater than 100 µM and the TGI [53] was greater than 100 µM. The TGI [54] was 54.3 µM, the TGI [55] was greater than 100 µM and the TGI [56] was greater than 100 µM. The TGI [57] was greater than 100 µM.
